# Data as given in PubChem BioAssay (NCI).
#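 Where inhibition never reached the appropriate level, the endpoint shown equals the highest concentration tested. Otherwise, values were interpolated linearly from a five-concentration, 48-hour dose response in 96-well plates. The concentration for 50% growth inhibition is given as GI50. TGI is the concentration that stops growth completely.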
# Assays:
# Assay in all cases: NCI-60 cell line screen, 48 h
# [1] = test system: SK-MEL-28 melanoma
# [2] = test system: MDA-N
# [3] = test system: DLD-1 colon
# [4] = test system: DMS 114 small cell lung
# [5] = test system: DMS 273 small cell lung
# [6] = test system: SNB-78 CNS
# [7] = test system: XF 498 CNS
# [8] = test system: HOP-18 NSCLC
# [9] = test system: KM20L2 colon
# [10] = test system: LXFL 529 NSCLC
# [11] = test system: M19-MEL melanoma
Compound,GI50 [1] [µM],TGI [1] [µM],also measured
O=C1C(Cl)=C(Nc2cccc(Cl)c2)C(=O)N1Cc1ccccc1,19.5,55.5,
CC[C@]12CCCN3CCc4c(n(c5ccccc45)C(=O)C1)[C@@H]32,,> 100,TGI [2]: 4.79 µM
Cc1ccc(S(=O)(=O)OC2CCN(C)CC2)cc1,,> 100,TGI [2]: > 100 µM
CCOC(=O)c1c2c(c(O)c3ccccc3c(O)n(Cc3ccc(OC)cc3)c1C)C(=O)C=CC2=O,> 100,> 100,
COc1cc(C(=O)/C=C/c2c(C)n([O-])c3ccc(C)cc3[n+]2=O)cc(OC)c1OC,2.41,6.54,
Cc1ccc(NC(=O)c2cc3cc(N=Nc4ccc(Br)cc4)ccc3oc2=O)cc1,,> 100,TGI [3]: > 100 µM; TGI [4]: > 100 µM; TGI [5]: > 100 µM; TGI [6]: > 100 µM; TGI [7]: > 100 µM
COc1cc(NS(C)(=O)=O)ccc1Nc1c2ccc([N+](=O)[O-])cc2nc2c(C)cccc12,2.73,17.4,
COc1ccccc1NC(=O)c1sc2nc3c(cc2c1N)C(=O)CCC3,3.46,> 100,
COc1ccc(OC)c(/C=N/NC(=O)Cc2csc3nc(-c4ccc(Br)cc4)cn23)c1,41.5,> 100,
COC(=O)CCC(=O)C(=O)OC,17600,60400,
CC12CCC3C(CCC4Cc5[nH]c6ccccc6c5CC43C)C1CCC2O (stereo not drawn),0.813,> 100,
CCCCC[C@H](O)/C=C/[C@@H]1[C@@H](C/C=C\CCCC(=O)O)[C@@H](O)C[C@H]1O,> 100,> 100,
CCSCC1CC(O)(c2ccccc2)C(c2ccccc2)C(c2ccc(Cl)cc2)O1 (stereo not drawn),1.79,4.19,
O=C1c2ccccc2-c2c1c1ccccc1c(=O)n2CCCCNCCCn1c2c(c3ccccc3c1=O)C(=O)c1ccccc1-2,2.95,34.8,
CCc1nc(N)nc(N)c1-c1ccc(NCCN)c([N+](=O)[O-])c1,,> 100,TGI [2]: > 100 µM
CC(C)/C=C1\CCC(CN2CCCC2)C1=O (stereo not drawn),,32.9,TGI [3]: 10.4 µM; TGI [4]: 34.5 µM; TGI [8]: 17.3 µM; TGI [9]: 36 µM; TGI [10]: 10.1 µM; TGI [11]: > 60.4 µM; TGI [6]: 51.2 µM; TGI [7]: 31.5 µM
CS/C(=N\C(=S)N(C)C)N(c1ccccc1)c1nc(=[N+](C)C)ss1,,9.22,TGI [4]: 2.28 µM; TGI [5]: 15.4 µM; TGI [9]: 50.3 µM; TGI [10]: 15.9 µM; TGI [11]: 14.8 µM; TGI [6]: 92.8 µM

Compound,GI50 [1] [µM],TGI [1] [µM],also measured
O=C(Nc1ccc(Cl)c(Cl)c1)c1cccc(NC2=C(Cl)C(=O)N(Cc3ccccc3)C2=O)c1,> 100,> 100,
Cc1cc2nc(C(C)C(=O)c3ccc(Cl)cc3)c(=O)[nH]c2cc1C (stereo not drawn),,> 100,TGI [2]: 40.4 µM
O=[N+]([O-])c1ccc(S(=O)(=O)Cc2ccccc2)c([N+](=O)[O-])c1,,8.24,TGI [2]: 4.09 µM
O=C(O)C/C(=C\c1ccco1)C(=O)O,,> 100,TGI [2]: > 100 µM
CCN(CC)CCOCC[C@H]1CC[C@H]2[C@@H]3[C@H](C)Cc4cc(OS(N)(=O)=O)ccc4[C@H]3CC[C@]12C,1.27,2.53,
COc1ccc2oc(=O)cc(C(c3ccc[nH]3)c3ccc[nH]3)c2c1,0.874,14,
COc1cc2c(cc1O)CC[C@@H]1[C@@H]2CC[C@]2(C)[C@@H](NCCN(C)C)CC[C@@H]12,0.0883,0.262,
O=C(NC1CCN(Cc2ccccc2)CC1)c1cc(-c2ccncc2)nc2ccc(Cl)cc12,10.5,> 50.7,
CCNC(=O)[C@@H]1CCCN2C(=O)CC[C@H](NC(=O)[C@H](Cc3ccc(OP(=O)(O)O)cc3)NC(C)=O)C(=O)N12,> 25,> 25,
Nc1ccc2c(c1)C(=O)C(=O)c1c-2nc2ccccn12,1.26,2.64,
CCOC(=O)Nc1cc2nnc(-c3ccccc3)nc2c(N)n1,,> 100,TGI [3]: > 100 µM; TGI [4]: > 100 µM; TGI [9]: 20.4 µM; TGI [10]: > 100 µM; TGI [11]: > 100 µM; TGI [7]: > 100 µM
CN(Cc1cnc2nc(N)nc(N)c2n1)c1ccc(C(=O)NC(CCC(=O)O)C(=O)O)cc1C(F)(F)F (stereo not drawn),,> 100,
Cc1ccc2c(c1)C(C)Cc1c(ncnc1-n1cnc3ccccc31)N2C (stereo not drawn),12.3,29,
C/C(=N\NC(=O)c1sc(=S)n(C)c1N)c1cc2ccccc2o1,21.6,> 100,
COc1ccc(-c2cc(-c3cc(Cl)ccc3Cl)nc3n[nH]c(N)c23)cc1,26,> 100,
Cn1cc(-c2ccc3c(Nc4cccc(NC(=O)Nc5cccc(F)c5)c4)ncnc3c2)cn1,1.55,3.08,
O=C(O)CCNc1ccccc1C(=O)O,,> 100,TGI [2]: > 100 µM
